Measured values from patent US20090041719A1, “Method for screening therapeutic agent for glomerular disorder” (priority 2006, published 2009).
“And” between values parts separate entries of the source, which are not always exact repeats. Equal values may be shown once.

Legend:
[1] = test system: glomerular lesions; renal tubulointerstitial lesions; conditions: International Publication WO 2004/024185 and 01/72730 pamphlets; cited from earlier work
[2] = test system: rat unilateral ureteral obstruction release model; test: Rat unilateral ureteral obstruction release model: glomerular and tubulointerstitial lesions, Asc-1+ cells; format: in vivo, SD rat; conditions: for Improvement of glomerular lesion: Yes = lesioned glomeruli per 50 glomeruli reduced to less than or equal to half the control average; for Improvement of tubulointerstitial lesion: Yes = reduced to less than or equal to half the control average;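 as to Tubulointerstitial lesion: atrophy of tubules associated with dilatation of tubules (score): ± very light + light ++ moderate +++ high change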;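 as to Tubulointerstitial lesion: fibrosis of interstitial tissue (score): ± very light + light ++ moderate +++ high change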;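 as to Tubulointerstitial lesion: thickness of basement membrane (score): ± very light + light ++ moderate +++ high change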
Source text: An experimental model was produced in accordance with the method devised and established by Ishibashi (Michio Ishibasi et al., Japanese Journal of Nephrology 42: 248, 2000), using a 8 to 9-week-old male SD rat weighing about 280 g. […] On day 14 after obstruction, the obstruction was released, and the urinary tract was reconstructed using a cuff. That is, 14 days later, the ligated ureteral obstruction part was partially removed, and a 25 gauge polyethylene tube (made by Nippon Sherwood) as a cuff was inserted from the lower normal ureteral stump and placed in the lumen. Next, the cuff was placed also in the expanded upper ureter, and both parts were ligated for fixation with a 7-0 nylon suture to reconstruct the urinary tract. At the same time, the right kidney was removed. The weight was measured after obstruction release, and the blood was collected on days 2, 5, and 7 after release for serum creatinine determination. On day 7, the rat was sacrificed under anesthesia and the left obstruction release kidney was removed. The weight of the removed kidney was measured, and the kidney pathomorphological examination was performed.
The biological effects of the test compound were studied in vivo using the model obtained in the above procedure 1). The test compound in the form of bulk powder was dissolved in sterilized physiologic saline together with gum arabic, where the concentration of the gum arabic was adjusted to 5% and the concentration of the test compound was adjusted to 30 mg/ml. The amount of 30 mg/kg was subcutaneously administered every day. Daily administration was continued for 21 days during 14 days of obstruction and 7 days after obstruction release. For controlled comparison, the solvent of 5% gum arabic was administered alone.
On day 22 from the administration of the test compound, the rat was sacrificed under anesthesia, and the left obstruction release kidney was removed and neutral formalin fixed. The fixed renal tissue embedded in paraffin was sliced into 4-micrometer-thick pieces for examination.
The tissue section was observed under a microscope in order to count the number of glomeruli and the number of glomeruli having a lesion (expansion of a tubular pole associated with swollen Bowman's capsule epithelial cells or hypertrophy of a Bowman's capsule basal membrane) in the field of view, and the number of glomeruli having the lesion (referred to as “lesioned glomerulus”) per 50 glomeruli was calculated.
As for the effectiveness to improve of glomerular lesions, when the number of lesioned glomeruli per 50 glomeruli was reduced to less than or equal to half the average number of those of the control group, it was determined as improved.
An affinity-purified anti-rat Asc-1 polyclonal antibody (rabbit) was prepared as follows: that is, in order to prepare an anti-Asc-1 peptide polyclonal antibody (rabbit), an oligopeptide (PSPLPITDKPLKTQC (SEQ. ID NO: 4)) corresponding to amino acid residues of 517-530 of Asc-1 was synthesized (see J Biol Chem (2000); 275: 9690-9698), keyhole limpet hemocyanine was bound to the C-terminal cysteine as an adjuvant, and […] was immunized therewith. The serum was collected on days 7 and 14 from the immunization. The serum was concentrated by means of an adsorption-dissociation operation using an affinity column to which an oligopeptide corresponding to amino acid residues of 517-530 of Asc-1 was bound in order to obtain an affinity-purified antibody having a protein content of 0.5 mg/ml. As for immunopathological examination, paraffin rat […] diluted with PBS to the optimal concentration was used.
The immune tissue staining was performed based on the protocol of Ventana HX system bench mark (Ventana Japan K.K., Tokyo) including the automated immunostaining device manufactured by Ventana Japan K.K. After deparaffinization, the tissue section was heat-treated at 100° C. for 1 hour. […]

rBAT = test: HAT heavy chain rBAT on large-monocyte fraction of LPS-stimulated human PBMC, peak value by FACScan; format: cell-based; conditions: human PBMC + LPS 80 μg/ml, 6-day culture; test compound 100 nM; solvent control 37
Experimental: (§1) In the same manner as in 1) to 5) of Experimental Example 1, to human peripheral blood mononuclear cells, the test compound (6-2) (final concentration: 10 nM) or the test compound (7-3) (final concentration: 100 nM) was added at the same time when LPS (final concentration: 80 μg/ml) was added, followed by 6-day culture. Further, in the same manner as above, using rabbit anti-human 4F2hc polyclonal antibodies (see Biol Pharm Bull 30:415-422, 2007) as a primary antibody, the peak value of HAT expressed on the fraction of large-macrophages (larger than monocyte macrophages) in human PBMC was measured by FACScan using a commercially available cell fix/cell membrane infiltration kit (trade name: BD Cytofix/Cytoperm™ Kit, catalog No. 554714, BD Biosciences).
(§2) As a control, the one with no test-compound addition was used, and as a rabbit anti-human rBAT (related to b^0,+-type amino acid transporter) polyclonal antibody, the one obtained by coupling a synthesized peptide composed of an amino-terminal of human rBAT (MAEDKSKRDSIEMSMKGC (SEQ ID NO: 2)) and a carboxyl-terminal of mouse b^0,+AT (BAT1) (CHLQMLEWPEKDPE (SEQ ID NO: 3)) to a carrier KLH (keyhole-limpet hemocyanin), and immunizing a rabbit with it.

FRP-1/CD98/4F2hc = test: FACScan of FRP-1/CD98/4F2hc expression on macrophage fraction of LPS-stimulated human PBMC (monoclonal antibodies 4-5-1, 6-1-3, HBJ-127); format: cell-based
4F2hc [3] = test: 4F2hc on large-cell fraction of LPS-stimulated THP-1, peak value by FACScan; format: cell-based, human
Experimental: The same procedures as in Experimental Example 2 were taken except the following conditions: human leukemia culture cell line THP-1 was used instead of the human peripheral blood mononuclear cells; the final addition concentration of the test compound (6-2) was set to 100 nM, and the final addition concentration of the test compound (7-3) was set to 1000 nM; and fetal bovine serum was used instead of the human AB serum. The peak value of HAT expressed on the fraction of large-cells in human leukemia culture cell strain THP-1, compared with those not stimulated with LPS, was measured. As a control, the one with no test-compound addition was used, and the peak value of HAT was measured by FACScan using a commercially available cell fix/cell membrane infiltration kit (trade name: BD Cytofix/Cytopem™ Kit, catalog No. 554714, BD Bioscience).

4F2hc [4] = test: HAT heavy chain 4F2hc on large-monocyte fraction of LPS-stimulated human PBMC, peak value by FACScan (polyclonal antibody); format: cell-based
Experimental: as §1, §2

[5] = group average ± standard deviation
[6] = individual animal, 30 mg/kg s.c. daily for 21 days, 30 mg/kg
[7] = individual animal, points: ± 0.5, + 1, ++ 2, +++ 3
[8] = individual animal, sum of the three scores
[9] = human PBMC + LPS 80 μg/ml, 6-day culture, test compound 100 nM

Structure (SMILES) | Glomerular lesion: number of lesioned glomeruli per 50 glomeruli, expansion of tubular pole associated with swollen Bowman's capsule epithelial cells [2, 5] | Glomerular lesion: number of lesioned glomeruli per 50 glomeruli, hypertrophy of Bowman's capsule basal membrane [2, 5] | Number of Asc-1+ cells per 50 glomeruli [2, 5] | Tubulointerstitial lesion: atrophy of tubules associated with dilatation of tubules (score) [2, 5] | Tubulointerstitial lesion: fibrosis of interstitial tissue (score) [2, 5] | Tubulointerstitial lesion: thickness of basement membrane (score) [2, 5] | Tubulointerstitial lesion: total score [2, 5] | Glomerular lesion: number of lesioned glomeruli per 50 glomeruli, expansion of tubular pole associated with swollen Bowman's capsule epithelial cells [2, 6] | Glomerular lesion: number of lesioned glomeruli per 50 glomeruli, hypertrophy of Bowman's capsule basal membrane [2, 6] | Number of Asc-1+ cells per 50 glomeruli [2, 6] | Improvement of glomerular lesion ([2]; individual animal) | Improvement of tubulointerstitial lesion ([2]; individual animal) | Tubulointerstitial lesion: atrophy of tubules associated with dilatation of tubules (score) [2, 7] | Tubulointerstitial lesion: fibrosis of interstitial tissue (score) [2, 7] | Tubulointerstitial lesion: thickness of basement membrane (score) [2, 7] | Tubulointerstitial lesion: total score [2, 8] | known action on renal tubulointerstitial lesions [1] | other results
C[C@@H](OC[C@@]1(Oc2ccc(F)cc2)CCC(=O)O1)c1ccc2ccccc2c1 [(3-2)] | 6 ± 3 per 50 glomeruli | 6 ± 1 per 50 glomeruli | 11.06 ± 3.51 per 50 glomeruli | 2.6 ± 0.9 | 2.2 ± 0.4 | 2.2 ± 0.4 | 7.0 ± 1.2 | 10 per 50 glomeruli and 6 per 50 glomeruli (2×) and 5 per 50 glomeruli and 3 per 50 glomeruli | 6 per 50 glomeruli and 5 per 50 glomeruli (2×) and 8 per 50 glomeruli and 7 per 50 glomeruli | 9.48 per 50 glomeruli and 9.55 per 50 glomeruli and 14.91 per 50 glomeruli and 6.84 per 50 glomeruli and 14.52 per 50 glomeruli | Yes | No | 3 (4×) and 1 | 2 (4×) and 3 | 2 (4×) and 3 | 7 (2×) and 8 (2×) and 5 | – | known action on glomerular lesions [1]: selectively inhibit the glomerular lesions
C[C@@H](OC[C@]1(Oc2ccc(F)cc2)CCC(=O)O1)c1ccc2ccccc2c1 [(4-2)] | 11 ± 6 per 50 glomeruli | 18 ± 9 per 50 glomeruli | 4.03 ± 3.06 per 50 glomeruli | 1.0 ± 0 | 1.5 ± 0.6 | 0.9 ± 0.3 | 3.4 ± 0.5 | 16 per 50 glomeruli (2×) and 6 per 50 glomeruli and 7 per 50 glomeruli | 29 per 50 glomeruli and 9 per 50 glomeruli and 20 per 50 glomeruli and 13 per 50 glomeruli | 1.81 per 50 glomeruli and 7.39 per 50 glomeruli and 5.83 per 50 glomeruli and 1.10 per 50 glomeruli | No (2×) and Yes (2×) | No and Yes (3×) | 1 | 2 (2×) and 1 (2×) | 1 (3×) and 0.5 | 4.0 and 3.5 and 3.0 (2×) | selectively inhibit the renal tubulointerstitial lesions | –
O=C1OC(Cl)(C(=O)OCc2ccccc2)c2ccccc21 (stereo not shown) [Compound (7-3)] | 5 ± 3 per 50 glomeruli | 14 ± 5 per 50 glomeruli | 0.90 ± 0.47 per 50 glomeruli | 0.50 ± 0.4 | 0.5 ± 0 | 0.4 ± 0.3 | 1.4 ± 0.6 | 9 per 50 glomeruli and 1 per 50 glomeruli and 6 per 50 glomeruli and 4 per 50 glomeruli | 20 per 50 glomeruli and 10 per 50 glomeruli and 16 per 50 glomeruli and 11 per 50 glomeruli | 1.35 per 50 glomeruli and 0.47 per 50 glomeruli and 1.27 per 50 glomeruli and 0.53 per 50 glomeruli | No (2×) and Yes (2×) | – | 0.5 (2×) and 0 and 1 | 0.5 | 0.5 (3×) and 0 | 1.5 (2×) and 0.5 and 2 | selectively inhibit the renal tubulointerstitial lesions | Change in HAT expressed on large-monocyte fraction of human PBMC (peak value by FACScan), rBAT (rBAT): 38; Migration of FRP-1/CD98/4F2hc expression of macrophage fraction by FACScan (migration rate %), monoclonal antibody 4-5-1 (FRP-1) (FRP-1/CD98/4F2hc; [9]): 2.6%; Migration of FRP-1/CD98/4F2hc expression of macrophage fraction by FACScan (migration rate %), monoclonal antibody 6-1-3 (FRP-1) (FRP-1/CD98/4F2hc; [9]): 2.0%; Migration of FRP-1/CD98/4F2hc expression of macrophage fraction by FACScan (migration rate %), monoclonal antibody HBJ-127 (CD98) (FRP-1/CD98/4F2hc; [9]): 5.4%; expression of FRP-1/CD98/4F2hc on macrophage fraction of human PBMC (in words) (FRP-1/CD98/4F2hc; stimulated and cultured with LPS, summary of Table 1): did not increase the expression; Change in HAT expressed on large-cell fraction of THP-1 (peak value by FACScan), 4F2hc (4F2hc [3]; THP-1 + LPS 80 μg/ml, fetal bovine serum, test compound 1000 nM, solvent control 12): 11; amount of 4F2hc in the heavy chain of HAT (in words) (4F2hc [3]; THP-1 + LPS, summary of Table 3): did not make any change; Change in HAT expressed on large-monocyte fraction of human PBMC (peak value by FACScan), 4F2hc (4F2hc [4]; human PBMC + LPS 80 μg/ml, 6-day culture, test compound 100 nM, solvent control 23): 20; amount of 4F2hc in the heavy chain of HAT (in words) (4F2hc [4]; human PBMC + LPS, summary of Table 2): did not show any effects; amelioration / reduction of tubulointerstitial lesions, rats of the group ([2]; control group: one rat out of four): all of four rats; Asc-1 positive cells in the glomeruli (in words) ([2]; versus control group): only a small number
